Experiment in all cases: NCI anticancer screen, dose series, 48 h
Assay [1] deals with KM12 colon.
The test system of assay [2] is ACHN renal.
In assay [3] the test system is OVCAR-4 ovarian.
Assay [4] relates to EKVX NSCLC.
The subject of assay [5] is MOLT-4 leukemia.
In assay [6] the test system is MDA-MB-231 breast.
The test system of assay [7] is OVCAR-8 ovarian.
Assay [8] concerns SF-539 CNS.
Assay [9] deals with SK-MEL-5 melanoma.
Assay [10] concerns HOP-62 NSCLC.

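All cell lines were grown in 96-well plates and treated with compound for 48 hours. Abbreviation: GI50, concentration required for 50% inhibition of growth. TGI: concentration producing complete growth inhibition.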

With `CC1OC(OC2C(O)CC(OC3C(O)CC(OC4CCC5(C)C(CCC6C5CC(O)C5(C)C(C7=CC(=O)OC7)CCC65O)C4)OC3C)OC2C)CC(O)C1O` (centres undefined), the GI50 in [1] is 82.4 nM; in assay [2], 35.8 nM; in [3], 34.7 nM; in [4] it was 35.1 nM; in assay [5], 25.2 nM; in assay [6], 205 nM. For the same compound, the GI50 in assay [7] was 56.6 nM; in assay [8], 42.7 nM; in [9], 37.1 nM; in assay [10], 36 nM. Further, the TGI in [1] was determined as 280 nM; in [2], 126 nM; in assay [3], 139 nM; in assay [4], 121 nM; in assay [5] it was 61.9 nM; in [6], 616 nM. The TGI in [7] worked out at 196 nM; in assay [8], 150 nM; in assay [9], 129 nM; in [10] it was 125 nM.
For `COC(=O)c1cncc(/C=C/c2c(C)cc(O)cc2C)c1`, the GI50 in [1] was 7760 nM; in [2] it was more than 21500 nM; in assay [3], 8110 nM; in assay [4] it was more than 17300 nM; in assay [5], 4190 nM; in assay [6], 7190 nM. In addition, the GI50 was 17900 nM in assay [7], 11000 nM in assay [8], 6780 nM in [9] and 9820 nM in assay [10]. The TGI in assay [1] is 24600 nM; in assay [2] it was more than 25000 nM; in assay [3] it was more than 25000 nM; in [4], more than 25000 nM; in assay [5] it was more than 20100 nM; in [6], more than 23000 nM. Besides, the TGI is more than 25000 nM in assay [7], more than 25000 nM in assay [8], more than 16900 nM in assay [9] and more than 20500 nM in [10].
As for `OC(C#Cc1ccccc1)(c1ccccc1)c1ccccc1`, the TGI in [1] was 78400 nM; in assay [2], more than 100000 nM; in assay [3] it was more than 100000 nM; in assay [4], 82400 nM; in assay [5], more than 100000 nM; in assay [6], more than 100000 nM. In addition, the TGI in assay [7] is more than 100000 nM; in [8] it was more than 100000 nM; in assay [9] it was 37700 nM; in assay [10] it was more than 100000 nM.
Take `C/C(=C\c1cnc(C)s1)[C@@H]1C[C@@H]2O[C@@H]2CCC[C@H](C)[C@H](O)[C@@H](C)C(=O)C(C)(C)[C@@H](O)CC(=O)O1`: the GI50 in [1] is less than 10 nM; in assay [2] it was less than 10 nM; in assay [4], 12.7 nM; in assay [5], less than 10 nM; in assay [6], less than 14.8 nM; in assay [7], less than 10 nM. Besides, the GI50 was less than 10 nM in [8], less than 10 nM in assay [9] and less than 12.7 nM in assay [10]. Further, the TGI in [1], in [2], in assay [3], in assay [4], in assay [5] and in [6] was more than 100000 nM in each case. For the same compound, the TGI in [7], in [8], in assay [9] and in assay [10] was more than 100000 nM each time.
As for `O=C(CCCCCCN1CC(=O)N2[C@@H](c3ccc(Cl)c(Cl)c3)c3[nH]c4ccccc4c3C[C@H]2C1=O)NO`, the GI50 in assay [1] was 3800 nM; in assay [2] it was 5340 nM; in assay [3], 4710 nM; in assay [4], 7710 nM; in [5] it was 1120 nM; in assay [6], 3470 nM. For the same compound, the GI50 in [7] is 2820 nM; in [8] it was 3760 nM; in assay [9], 4730 nM; in assay [10], 3880 nM. The TGI in [1] is 9290 nM; in assay [2] it was 12900 nM; in assay [3] it was 23800 nM; in [4], more than 33300 nM; in assay [5], 17300 nM; in [6], 9310 nM. Moreover, the TGI in assay [7] turned out to be 17900 nM; in assay [8], 9270 nM; in assay [9], 9290 nM; in assay [10], 9350 nM.
For the compound `O=C(CC1(O)C(=O)N(Cc2ccccc2)c2ccccc21)c1ccc(C(=O)NCC2CCC3(CC2)OOC2(CCCCC2)OO3)cc1` (centres undefined), the GI50 in assay [1] was 988 nM; in [2] it was 195 nM; in assay [3], 1950 nM; in assay [4], 659 nM; in assay [5] it was 1890 nM; in assay [6], 1150 nM. Further, the GI50 in [7] is 287 nM; in assay [8] it was 399 nM; in assay [9] it was 1660 nM; in assay [10], 273 nM. In addition, the TGI came out at 2580 nM in [1]; 399 nM in [2]; 5350 nM in assay [3]; 2040 nM in [4]; 4610 nM in [5]; 2950 nM in [6]. The TGI in assay [7] stood at 817 nM; in assay [8], 1040 nM; in assay [9] it was 3140 nM; in assay [10] it was 860 nM.
As to `Cc1cccc2c3c(sc12)C(c1ccc(Cl)cc1)C(C#N)=C(N)O3` (centres undefined), the GI50 in assay [1] was 428 nM; in [2] it was 834 nM; in assay [3] it was 2080 nM; in [4], 570 nM; in assay [5], 497 nM; in [6], 679 nM. Also, the GI50 is 471 nM in assay [7], 299 nM in assay [8], 467 nM in assay [9] and 515 nM in [10]. Further, the TGI in [1] is 10700 nM; in assay [2], 14100 nM; in assay [3] it was 18500 nM; in assay [4], 17800 nM; in assay [5], 13700 nM; in assay [6] it was 7740 nM. Further, the TGI in assay [7] was 6890 nM; in assay [8], 1140 nM; in assay [9], 4110 nM; in [10] it was 13800 nM.
Consider `COC1=C(OC)C(=O)C(SC/C=C(\C)CCCC(C)CCCC(C)CCCC(C)C)=CC1=O` (centres undefined), for which the GI50 is 934 nM in assay [1]; 2040 nM in assay [2]; 1320 nM in assay [3]; 1110 nM in [4]; 1410 nM in [5]; 1920 nM in [6]. Besides, the GI50 in [7] is 456 nM; in assay [8] it was 1410 nM; in assay [9], 341 nM; in [10] it was 3050 nM. In addition, the TGI in [1] was more than 87900 nM; in [2], more than 100000 nM; in assay [3] it was more than 100000 nM; in assay [4], more than 37700 nM; in [5], more than 100000 nM; in assay [6] it was 8780 nM. Moreover, the TGI in assay [7] is more than 100000 nM; in assay [8], more than 92200 nM; in assay [9], 1730 nM; in assay [10] it was more than 100000 nM.

The record behind these values is PubChem BioAssay (NCI).
